{"source": "patent US12275725B2", "about": "“Inhibitors of the notch transcriptional activation complex and methods for use of the same” (University of Miami, priority 2019, dated 2025)", "key": {"[1]": {"experiment": "Pharmacokinetic study in mouse plasma", "type": "in vivo", "conditions": "for Cmax: read-out: *C0/Cmax; for bioavailability: mouse", "method": "Pharmacokinetic studies were performed as previously described (Astudillo et al. (2016) Cancer Res). The following treatments were administered: NADi-260 via intraperitoneal (i.p.) route at 100 mg/kg, NADI-260 via intravenous route (i.v.) at 2 mg/kg, NADi-351 via i.p. at 10 mg/kg, NADi-351 via […] at 10 mg/kg and NADi-351 via oral route (PO) at 50 mg/kg. Blood samples were collected from each treatment group and their respective control grounds, plasma was separated from blood immediately by centrifugation at 4000 rpm for 10 min at 4° C. and stored below −70° C. until bioanalysis. All samples were processed for analysis by protein precipitation using acetonitrile and analyzed by fit for purpose LC-MS/MS method. Pharmacokinetic parameters were calculated using the non-compartmental analysis module of Phoenix WinNonlin (Version 6.3). Histological Analysis of Mouse Intestine Tissue"}, "[2]": {"experiment": "GSH ethyl ester conjugation / parent remaining in human liver microsomes", "type": "in vitro ADME", "conditions": "for Percentage (%) Parent Remaining in HLM: reacted with GSH"}, "[3]": {"experiment": "Pharmacokinetic study in mouse plasma", "type": "in vivo", "conditions": "iv, i.v. 10 mg/kg"}, "Notch target genes": {"tested_on": "Notch target genes", "experiment": "Quantitative RT-PCR of Notch target genes in OE33 cells", "type": "cell-based, human", "conditions": "OE33, 48 h, compared to control (DMSO), normalized to TBP", "method": "Quantitative RT-PCR Other Assays\nRNA was isolated from OE33 cells treated with either DMSO (vehicle) or NADi-351 for 48 h, using an RNA purification kit (Qiagen), following the manufacturer's instructions. cDNA was synthesized using the High Capacity cDNA Reverse Transcription kit (Applied Biosystems), according to the manufacturer's instructions. qPCR reactions were carried out in the Bio-Rad CFX96 thermal cycler using Sybr Green Master Mix (Bio-Rad). Gene expression was normalized to housekeeping gene TBP. […]"}, "[4]": {"tested_on": "OE33 cell line (esophageal adenocarcinoma)", "experiment": "Colony assay, OE33", "type": "cell-based, human", "conditions": "OE33, repeat dose every 48 hours for 10 days", "method": "Cells were plated into a 6 well plate at a density of 2000 cells/cm^2. Inhibitor treatment commenced 24 hours post seeding, and the media containing inhibitor was changed every 48 hours thereafter. […]"}, "[5]": {"biological_target": "T1, Notch1 transcriptional complex (Homo sapiens, UniProt P46531)", "T1 construct": "endogenous in cells; host or cells: OE33 cells, nuclear lysate", "T1 sequence (P46531 1754-2555 limits assumed)": "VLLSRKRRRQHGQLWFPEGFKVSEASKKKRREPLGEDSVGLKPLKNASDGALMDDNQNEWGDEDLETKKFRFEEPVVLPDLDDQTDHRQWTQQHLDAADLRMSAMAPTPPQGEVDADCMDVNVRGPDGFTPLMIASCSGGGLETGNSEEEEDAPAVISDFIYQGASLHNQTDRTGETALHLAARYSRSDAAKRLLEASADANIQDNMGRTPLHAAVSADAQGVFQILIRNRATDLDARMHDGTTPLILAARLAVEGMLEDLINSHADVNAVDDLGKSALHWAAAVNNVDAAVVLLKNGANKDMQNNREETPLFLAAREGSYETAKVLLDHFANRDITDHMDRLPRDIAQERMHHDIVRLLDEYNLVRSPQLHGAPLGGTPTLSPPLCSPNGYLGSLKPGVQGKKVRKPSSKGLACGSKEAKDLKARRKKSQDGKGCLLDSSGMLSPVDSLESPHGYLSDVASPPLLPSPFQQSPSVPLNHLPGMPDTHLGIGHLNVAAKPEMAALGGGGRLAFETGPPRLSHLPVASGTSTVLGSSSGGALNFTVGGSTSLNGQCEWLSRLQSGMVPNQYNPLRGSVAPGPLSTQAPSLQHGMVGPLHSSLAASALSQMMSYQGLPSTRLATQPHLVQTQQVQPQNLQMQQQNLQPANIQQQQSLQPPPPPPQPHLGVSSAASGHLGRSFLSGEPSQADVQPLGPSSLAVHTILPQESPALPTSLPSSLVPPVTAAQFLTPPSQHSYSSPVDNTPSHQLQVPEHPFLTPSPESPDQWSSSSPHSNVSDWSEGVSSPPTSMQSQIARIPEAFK", "T1 sequence (Q06330 whole entry partner)": "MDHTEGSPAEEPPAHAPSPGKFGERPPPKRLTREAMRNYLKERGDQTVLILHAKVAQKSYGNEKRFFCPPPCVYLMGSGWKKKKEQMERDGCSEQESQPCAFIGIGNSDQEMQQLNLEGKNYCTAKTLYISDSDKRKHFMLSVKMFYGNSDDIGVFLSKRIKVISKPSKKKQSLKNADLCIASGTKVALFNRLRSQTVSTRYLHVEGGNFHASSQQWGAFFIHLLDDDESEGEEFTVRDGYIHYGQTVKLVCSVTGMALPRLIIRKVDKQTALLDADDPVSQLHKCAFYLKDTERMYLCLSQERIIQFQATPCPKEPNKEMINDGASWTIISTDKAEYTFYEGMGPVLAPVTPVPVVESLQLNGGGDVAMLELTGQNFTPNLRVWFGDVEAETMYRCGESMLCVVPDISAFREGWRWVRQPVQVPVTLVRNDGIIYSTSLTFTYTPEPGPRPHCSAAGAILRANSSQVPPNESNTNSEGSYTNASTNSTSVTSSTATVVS", "experiment": "2xCSL DNA affinity precipitation, OE33 nuclear lysate: Notch1", "type": "cell-based", "conditions": "OE33, 48 hours of treatment", "method": "DNA Affinity Purification\nStreptavidin agarose beads (Pierce) were incubated with previously annealed 47-mer biotinylated dsDNA containing two high-affinity CSL binding sites facing forward (2×CSL binding DNA) or 2 mutated CSL binding sites (mut. DNA). Sequences were previously reported by Weaver et al. (2014) Cancer Res. The nuclear lysates of OE33 cell lines were incubated with the DNA streptavidin beads, and bound proteins were analyzed by Western blot. Protein analysis was carried out using conventional SDS-PAGE and transfer techniques. Blots were probed with the indicated antibody (“Ab”), using standard conditions, and detected using enhanced chemiluminescence (“ECL”). The following Ab were used: anti-Notch1^val1744 (4147S, Cell Signaling Technology), anti-Notch2^val1697 (SAB4502022, Sigma-Aldrich), anti-Notch3 (5276S, Cell Signaling), anti-CSL (5313S, Cell signaling), anti-SP1 (5931S, Cell Signaling), and anti-GAPDH (ab9483 Abcam)."}, "[6]": {"tested_on": "esophageal adenocarcinoma patient-derived xenograft (EAC47 PDX tumor)", "experiment": "Esophageal adenocarcinoma patient-derived xenograft (PDX) model", "type": "in vivo", "conditions": "NSG mice, 25 days of treatment", "method": "Mouse Xenograft Studies Six-week-old NOD-SCID gamma (“NSG”) mice were purchased from Jackson Laboratories and CD-1 Nude mice were purchased from Charles River Laboratories. For the cell line based xenografts assay, 5×10^6 OE19 cells in 200 μl serum-free culture medium were injected subcutaneously per mouse. The mice in the treatment group were injected with 15 mg/kg NADi-351 daily, and the mice in the control group were injected with the same volume of vehicle (DMSO). Subcutaneous tumor growth was measured once every 4 days using calipers along with body weight. The experiment was discontinued on day 28. PDX cancer models were established, as described in Zhang et al, Establishment of Patient-Derived Xenograft (PDX) Models of Human Breast Cancer, Current Protocols in Mouse Biology, 3:21-29 (2013), in NSG mice. Briefly, 10 mm^3 pieces of primary EAC47 PDX tumor were transplanted subcutaneously into the flanks of NSG mice using a 13G telescopic needle. When the tumors reached 200 mm^3, the mice were split into two uniform groups for treatment. NADi-351 (20 mg/kg) and vehicle were administered daily by intraperitoneal (“IP”) injection for 24 days. Tumor growth was monitored every 4 days and tumor volume was measured by the formula: Volume=(S×S×L)/2, where S and L are the short and long dimensions. […]"}, "[7]": {"tested_on": "OE33 cell line (esophageal adenocarcinoma)", "experiment": "Tumor sphere viability, MTT assay, OE33", "type": "cell-based, human", "conditions": "OE33, 72 hours of treatment", "method": "FIG. 4A depicts a graph showing the ability of NADi-351 to inhibit the tumor sphere viability of the OE33 cell line (esophageal adenocarcinoma) after 72 hours of treatment using the Methylthiazolyldiphenyl-tetrazolium bromide (“MTT”) assay.\nThe compounds and salts disclosed herein can inhibit the viability of tumor spheres and decrease Notch target gene expression.\nOE33 cells, human esophageal adenocarcinoma cell lines, were obtained from the European Collection of Cell Culture. SUM-149 and SUM-159, breast cancer cell lines, were obtained from Dr. Joyce Slingerland at the University of Miami School of Medicine. The following cell lines were obtained directly from the ATCC: 786-0, a human renal cell adenocarcinoma cell line; HT-1080, a human fibrosarcoma cell line; MCF-7, a mammary gland adenocarcinoma; T47D, a human mammary ductal carcinoma cell line; and H-23 a non-small cell lung adenocarcinoma cell line. All cell lines were propagated in growth media as specified."}, "[8]": {"conditions": "ip, i.p. 10 mg/kg, mouse plasma"}, "[9]": {"conditions": "iv, i.v. 10 mg/kg, mouse plasma"}, "[10]": {"conditions": "po, p.o. 50 mg/kg, mouse plasma"}}, "note": "Read-outs that look alike come from different tables or passages of the source.", "data": [{"molecule": "COc1cc(/C(C)=C2\\SC(=S)N(CC(=O)N(C)C)C2=O)cc(F)c1OCc1nnc[nH]1", "note": "[NADi-351, (Z)-2-(5-(1-(4-((1H-1,2,4-triazol-3-yl)methoxy)-3-fluoro-5-methoxyphenyl)ethylidene)-4-oxo-2-thioxothiazolidin-3-yl)-N,N-dimethylacetamide]", "values": [{"measurement": "AUC(0-inf)", "setting": "[1]; [8]", "result": 4550, "unit": "ng·h/mL"}, {"measurement": "AUC(0-t)", "setting": "[1]; [8]", "result": 4550, "unit": "ng·h/mL"}, {"measurement": "Tmax", "setting": "[1]; [8]", "result": 15, "unit": "min"}, {"measurement": "Cmax", "setting": "[1]; [8]", "result": 8200, "unit": "ng/mL"}, {"measurement": "AUC(0-inf)", "setting": "[1]; [9]", "result": 4570, "unit": "ng·h/mL"}, {"measurement": "clearance", "setting": "[1]; [9]", "result": 36.5, "unit": "mL/min/kg"}, {"measurement": "half-life", "setting": "[1]; [9]", "result": 87.6, "unit": "min"}, {"measurement": "Vd", "setting": "[1]; iv, i.v. 10 mg/kg, mouse plasma, read-out: Vss", "result": 0.8, "unit": "L/kg"}, {"measurement": "metabolic stability compared with NADi-260", "setting": "[1]; mouse plasma, FIG. 3", "result": "significantly improved metabolic stability"}, {"measurement": "bioavailability", "setting": "[1]; FIG. 3", "result": "excellent bioavailability"}, {"measurement": "bioavailability", "setting": "[1]; plasma, po, p.o. 50 mg/kg, read-out: % F", "result": "> 100", "unit": "%"}, {"measurement": "AUC(0-inf)", "setting": "[1]; [10]", "result": 38000, "unit": "ng·h/mL"}, {"measurement": "AUC(0-t)", "setting": "[1]; [10]", "result": 37900, "unit": "ng·h/mL"}, {"measurement": "Tmax", "setting": "[1]; [10]", "result": 30, "unit": "min"}, {"measurement": "Cmax", "setting": "[1]; [10]", "result": 17500, "unit": "ng/mL"}, {"measurement": "Percentage (%) Parent Remaining in HLM", "setting": "[2]; incubation time 0 min", "result": 100, "unit": "%"}, {"measurement": "Percentage (%) Parent Remaining in HLM", "setting": "[2]; incubation time 60 min", "result": 86, "unit": "%"}, {"measurement": "GSH ethyl ester conjugation in HLM", "setting": "[2]; within 60 minutes of incubation", "result": "increased stability toward GSH ethyl ester conjugation"}, {"measurement": "AUC(0-t)", "setting": "[3]", "result": 4570, "unit": "ng·h/mL"}, {"measurement": "Cmax", "setting": "[3]; back extrapolated, read-out: *C0/Cmax", "result": 15900, "unit": "ng/mL"}, {"measurement": "expression of Notch target genes", "setting": "Notch target genes", "result": "decreased the expression of Notch target genes"}, {"measurement": "colony formation", "setting": "[4]", "result": "decreased colony formation"}, {"measurement": "formation of the Notch1 intracellular domain (N1icd) complex", "setting": "[5]", "result": "inhibited the formation"}, {"measurement": "body weight of the subjects", "setting": "[6]", "result": "remained constant"}, {"measurement": "volume of the tumor", "setting": "[6]; compared to control", "result": "significantly inhibited compared to control"}, {"measurement": "decrease of tumor sphere viability", "setting": "[7]", "result": "about 75%"}]}]}
